Data set [1] concerns the target T1, mineralocorticoid receptor (MR) (Homo sapiens, UniProt P08235).
T1 sequence (P08235 1-984): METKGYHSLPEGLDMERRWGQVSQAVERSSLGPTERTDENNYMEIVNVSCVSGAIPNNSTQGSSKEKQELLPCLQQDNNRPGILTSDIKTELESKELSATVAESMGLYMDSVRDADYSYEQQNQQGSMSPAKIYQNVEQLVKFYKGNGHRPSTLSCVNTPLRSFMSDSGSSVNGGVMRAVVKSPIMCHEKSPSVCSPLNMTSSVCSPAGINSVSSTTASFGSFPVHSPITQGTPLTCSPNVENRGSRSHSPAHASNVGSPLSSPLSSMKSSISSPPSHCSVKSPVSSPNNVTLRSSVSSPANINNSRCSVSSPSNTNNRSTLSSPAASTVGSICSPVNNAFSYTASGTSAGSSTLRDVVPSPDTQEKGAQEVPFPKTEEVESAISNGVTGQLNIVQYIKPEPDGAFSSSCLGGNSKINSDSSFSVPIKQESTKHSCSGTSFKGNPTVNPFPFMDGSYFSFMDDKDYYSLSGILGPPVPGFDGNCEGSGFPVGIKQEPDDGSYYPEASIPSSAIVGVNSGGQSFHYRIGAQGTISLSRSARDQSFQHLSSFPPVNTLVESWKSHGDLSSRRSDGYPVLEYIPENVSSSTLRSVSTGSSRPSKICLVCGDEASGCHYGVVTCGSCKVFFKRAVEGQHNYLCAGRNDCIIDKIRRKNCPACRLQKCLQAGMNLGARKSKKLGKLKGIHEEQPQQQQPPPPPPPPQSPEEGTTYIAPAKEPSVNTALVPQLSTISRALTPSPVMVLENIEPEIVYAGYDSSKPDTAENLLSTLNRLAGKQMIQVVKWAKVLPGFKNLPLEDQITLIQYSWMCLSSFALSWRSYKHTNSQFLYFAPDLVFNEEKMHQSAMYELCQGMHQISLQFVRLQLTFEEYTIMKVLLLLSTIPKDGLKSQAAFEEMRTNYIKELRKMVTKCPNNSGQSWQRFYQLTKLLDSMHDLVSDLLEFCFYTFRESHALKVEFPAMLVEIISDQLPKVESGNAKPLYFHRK
As to the kind of experiment: MR agonist assay, MR-luciferase reporter cells. The format is cell-based. Conditions: 24 h incubation; 'in contrast' = unlike LEO 134310, which gave no significant activation. Here is the method:
Assays were performed at Indigo Biosciences according to standard protocols. In brief, MR-luciferase reporter cells were incubated with medium containing charcoal-stripped fetal bovine serum and incubated with test and reference compounds for 24 h before measuring luminescence. Data were fitted by the means of four parameter logistic regression.

The test system of data set [2] is skin atrophy. Also noted: method as in PMID 23639214. Conditions: healthy subjects; cited from earlier work.
The test system of data set [3] is atopic dermatitis. Also noted: method as in PMID 25614148. The settings on record: atopic dermatitis patients; cited from earlier work.
The test system of data set [4] is HPA axis. Also noted: method as in PMID 3553247. Conditions: topical; cited from earlier work.

Take `C[C@]12CCC(=O)C=C1CC[C@@H]1[C@@H]2[C@@H](O)C[C@]2(C=O)[C@@H](C(=O)CO)CC[C@@H]12` [aldosterone]: the “Activation of MR (luciferase activity)” value in data set [1] is on record as “positive control”.
In the case of `C[C@@H]1C[C@H]2[C@@H]3C[C@H](F)C4=CC(=O)C=C[C@]4(C)[C@@]3(F)[C@@H](O)C[C@]2(C)[C@@]1(OC(=O)C1C(C)(C)C1(C)C)C(=O)OCC#N` [GW870086], the “Induction of skin atrophy” value in data set [2] is recorded as “not to induce skin atrophy”. In addition, the Clinical efficacy entry in data set [3] is “did not achieve significant clinical efficacy”.
Consider `CCC(=O)OCC(=O)[C@@]1(OC(=O)CC)[C@@H](C)C[C@H]2[C@@H]3CCC4=CC(=O)C=C[C@]4(C)[C@@]3(F)[C@@H](O)C[C@@]21C` [betamethasone dipropionate], for which the “Effect on morning plasma cortisol” value in data set [4] is given as “reduce morning plasma cortisol significantly”.

Source of the values: publication PMC8795149, “Characterization of a novel non-steroidal glucocorticoid receptor agonist optimized for topical treatment” (Scientific Reports, 2022).
